The source of these data is US20200108031A1, “Treating Tumors Using TTFields Combined with ABT-751” (Novocure GmbH, priority 2018, published 2020).

Each structure is given as a SMILES string.

For test [1], the system named is A172 cells. Kind of test: Colony formation (clonogenic survival) of A172 cells, TTFields alone and in combination with ABT-751. The following applies: ABT-751 1 μM, 8 hours, TTFields 200 kHz, 3.3 V/cm, 72 hours (continuous or 3×16 hours), FIG. 2. It counts as cell-based. On the procedure: (§1) For the first two bars, both without (−) and with (+) ABT-751, TTFields were not applied. For the next two bars, both without (−) and with (+) ABT-751, TTFields were applied for three 16 hour intervals, and each of those 16 hour intervals was followed by an 8 hour interval during which TTFields were not applied. For the next two bars, both without (−) and with (+) ABT-751, TTFields were applied continuously for 72 hours. […] Data are mean±SEM; n≥5; Statistical significance was determined by one-way ANOVA; Tukey-corrected for multiple comparisons; *p<0.05, **p<0.01, ***p<0.001, ****p<0.0001. In all the experiments described herein, TTFields (200 kHz; 3.3V/cm) were applied using an Inovitro™ system.

Test [2] relates to A172 cells. Kind of test: Growth of A172 cells, TTFields alone and in combination with ABT-751. It counts as cell-based. The following applies: ABT-751 1 μM, 8 hours, TTFields 200 kHz, 3.3 V/cm, 72 hours (continuous or 3×16 hours), FIG. 1. Here is the method:
as §1

On to `COc1ccc(S(=O)(=O)Nc2cccnc2Nc2ccc(O)cc2)cc1` [ABT-751, N-[2-(4-hydroxyanilino)pyridin-3-yl]-4-methoxybenzenesulfonamide], for which the “synergy with TTFields on colony formation” value in the test with A172 cells [1] is given as “synergizes”. Moreover, the “synergy with TTFields on cell growth” value in the test with A172 cells [2] was “synergizes”.
